Data reported in patent US20120010178A1, “METHODS AND COMPOUNDS FOR TREATMENT OF NEURODEGENERATIVE DISORDERS” (PRESIDENT AND FELLOWS OF HARVARD COLLEGE, priority 2008, published 2012).
Entries after “also recorded” stand apart in the source; their conditions may differ.

Tests used:
[1] = system: PC12 cells; details: cited from earlier work
[2] = system: SMN; test: SMN levels in human motor neurons derived from patient iPS cells; format: cell-based; details: two days after treatment
Description: GFP expressing motor neurons were derived from an […] patient iPS cells as described below. After growing for approximately 1 week, motor neurons were treated with allsterpaullone. Two days after treatment with allsterpaullone, cells were fixed and stained with SMN antibody or GFP antibody. […] Induced pluripotent stem cells were generated from an SMA patient fibroblast line from Coriell (GM09677) and differentiated into motor neurons according to methods adapted from Dimos, J. T., et. al. Science (2008) 321, 1218-122, Epub Jul. 31, 2008).

[3] = system: SMN; test: High-content fibroblast screen for compounds that modulate SMN level; details: human fibroblasts, 2-3 days with compound;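 note: Anti-SMN immunostaining with confocal imaging of nuclear and cytoplasmic SMN and gem counts, tested at 0.1, 1 and 10 uM, fold change relative to negative control wells on each plate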
[4] = system: ES-cell derived Motor Neurons with SMN knockdown; test: Motor neuron survival assay after SMN knockdown (shRNA lentivirus); format: cell-based, mouse; details: for surviving motor neurons compared to DMSO: 1.25 and 2.5 uM
Excerpt: To test for survival, motor neurons were infected with three lentiviral constructs acquired from Open Biosystems (pGIPZ): a non-silencing (NS) shRNA and two with unique shRNA sequences directed against the Smn transcript. […] Quantification of SMN knockdown were made in 3T3 cells (FIGS. 39a-39b) and in motor neurons by sorting ES cell derived motor neurons (cherry positive) infected with the pGIPZ lentiviruses (GFP positive cells) by FACS and quantifying the amount of SMN by Western blot.
Effect of reduced SMN levels on motor neuron survival was investigated next. Motor neurons were plated and infected with the various lentiviral constructs. […] To test the effects of SMN increasing compounds, we added them to motor neurons two days after lentiviral infection. Over the course of the subsequent three days, we counted live cherry expressing motor neurons on a daily basis.
Mouse ES-cells expressing cherry fluorescent protein (CFP) under control of a Hb9 promoter, a motor neuron specific transcription factor, were used to differentiate motor neurons as described in Example 31. Motor neurons were infected with the three constructs that were acquired from Open Biosystems (pGIPZ): a non-silencing (NS) shRNA and two constructs with unique shRNA sequences directed against the Smn transcript. […] First we performed motor neuron survival assays to test whether reduced levels of SMN will affect viability of these motor neurons. We differentiated mES cells with Hb9-Chemy Fluorescent Protein (Hb9-CFP) in to motor neurons expressing CFP, that later we dissociated and plated on DIV0. Cells were infected with the NS pGIPZ virus, SMN#1 pGIPZ virus, SMN#2 pGIPZ virus or no virus on DIV 1. The percentage of surviving motor neuron was normalized to the uninfected control culture. […] The percentage of surviving motor neuron was normalized to the culture infected with control non-targeting shRNA.

[5] = system: kinase phosphorylation sites (Akt, RSK1, p38, GSKa/b, Erk1/2); test: Phospho-kinase antibody array of PDGF treated fibroblasts; format: cell-based, human; details: 50 ng/ml, 30 min
Description: Although there is much more known about growth factor specificity and downstream pathways that they activate, whether PDGF effect on SMN was mediated through the binding to the PDGFR was tested next. The SMN-increasing effects of PDGF were blocked by DMPQ and […], two small molecules inhibitors of the PDGF receptor (FIG. 21a). In addition PDGF neutralizing antibody titration were performed in the cells incubated with 20 ng/ml platelet-derived PDGF. Depending on the antibody concentration, gradient of SMN level decrease reaching 40% was observed (FIG. 21b). Moreover, as might be predicted, since there are appreciable levels of PDGF in the media serum in which the fibroblasts are normally maintained, simply adding PDGFR inhibitors DMPQ and AG-1296 to the media decreases the “basal” level of SMN in these cells down to 15-20%, (FIG. 22). Same effect was reproduced by adding PDGF neutralizing antibody to the media, confirming that PDGF can be a physiologically relevant regulator of SMN levels (FIG. 21c). […]
Cellular lysates from fibroblasts GM09677 treated with 50 ng/ml of PDGF-BB for 30 minutes and untreated control fibroblasts were collected and hybridized with the phosphor-kinase array membranes accordingly to the manufacture protocol (R&D Systems). […] Levels of phosphorylated protein were detected by measurement on the X-ray film (Kodak).

[6] = system: motor neurons; test: Motor neuron survival (mouse motor neurons, compound treatment); format: cell-based
Description: Mouse motor neurons were treated with […] inhibitors. The levels of both cytoplasmic and nuclear SMN were detected and quantified using the method described in Example 2. The results shown in FIG. 14b indicate that […] inhibitors increase motor neuron survival.
Another way of assessing motor neuron survival is by withdrawing the neurotrophic factors from the media. Briefly, motor neurons are grown in media containing neurotrophic factors. The neurotrophic factors are then withdrawn from the growth media, e.g., cells transferred to media having no neurotrophic factors or neurotrophic factor containing media exchanged with neurotrophic factors lacking media. The compound of interest is added and motor neurons are counted on a daily basis.

Row | Compound | protection from EGTA induced death [1] | SMN levels in human iPS derived motor neurons (in words) [2] | SMN level in fibroblast screen (increase or decrease) [3] | survival of motor neurons after SMN knockdown (in words) ([4]; 1.25, 2.5 or 5 uM) | surviving motor neurons compared to DMSO ([4]; by the second day) | surviving motor neurons compared to DMSO ([4]; by the third day) | effect on Erk1 and 2 kinase phosphorylation [5] | kinases phosphorylated upon stimulation [5] | motor neuron survival (in words) [6]
1 | O=C1Cc2c([nH]c3ccc([N+](=O)[O-])cc23)-c2ccccc2N1 [Alsterpaullone] | able to protect PC12 cells from EGTA induced death | Increased SMN levels | SMN is increase | able to rescue the survival; also recorded: rescues the survival of SMN-KD Motor Neurons up to control level | twice the amount of surviving cells | three fold difference |  |  | 
2 | PDGF |  |  |  |  |  |  | little effect | phosphorylation of Akt, RSK1, p38 and GSKa/b | no effect
